From article PMC12483202, “Pharmacokinetic profile of oral firocoxib in the koala (Phascolarctos cinereus)” (PLOS One, 2025)

Experiment: Single oral dose (5 mg/kg) pharmacokinetics of firocoxib in koalas, plasma HPLC, non-compartmental analysis;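 note: healthy adult koalas, three per sex, anaesthetised the day before dosing for cephalic vein catheterisation, with serial blood draws and firocoxib in plasma quantified by HPLC using fluorescence detection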
Conditions: for AUC(0-t): AUC0-t; for MRT inf: MRT0-inf; for k el: ke; for concentration at 1 h / concentration at 2 h / concentration at 4 h / concentration at 8 h: koala (Phascolarctos cinereus)
[1] = arithmetic mean, female koalas (n = 3), single oral 5 mg/kg
[2] = arithmetic mean, male koalas (n = 3), single oral 5 mg/kg
[3] = arithmetic mean, n = 6 koalas, single oral 5 mg/kg
[4] = both, plasma, po, 5 mg/kg, arithmetic mean, n = 6 koalas, single oral 5 mg/kg
[5] = both, plasma, po, 5 mg/kg, harmonic mean, n = 6 koalas, single oral 5 mg/kg
[6] = both, plasma, po, 5 mg/kg, median (range), n = 6 koalas, single oral 5 mg/kg
[7] = female, plasma, po, 5 mg/kg, Firocoxib plasma concentration, K4 female, single oral 5 mg/kg
[8] = female, plasma, po, 5 mg/kg, Firocoxib plasma concentration, K5 female, single oral 5 mg/kg
[9] = female, plasma, po, 5 mg/kg, Firocoxib plasma concentration, K6 female, single oral 5 mg/kg
[10] = female, koala, plasma, po, 5 mg/kg, Firocoxib plasma concentration, K4 female, single oral 5 mg/kg
[11] = female, koala, plasma, po, 5 mg/kg, Firocoxib plasma concentration, K5 female, single oral 5 mg/kg
[12] = female, koala, plasma, po, 5 mg/kg, Firocoxib plasma concentration, K6 female, single oral 5 mg/kg
[13] = female, plasma, po, 5 mg/kg, K4 female, single oral 5 mg/kg
[14] = female, plasma, po, 5 mg/kg, K5 female, single oral 5 mg/kg
[15] = female, plasma, po, 5 mg/kg, K6 female, single oral 5 mg/kg
[16] = female, plasma, po, 5 mg/kg, arithmetic mean, female koalas (n = 3), single oral 5 mg/kg
[17] = female, plasma, po, 5 mg/kg, harmonic mean, female koalas (n = 3), single oral 5 mg/kg

Text: Six mature koalas (3 males, 3 females) with median (range) body weights and ages of 9.2 kg, (7.5 to 9.7 kg) and 4.8 years (4.3 to 9.1 years), respectively, were recruited from the Taronga Zoo colony (Mosman, NSW, Australia). These koalas were clinically normal based on regular physical examinations, haematological and biochemical analyte values. During the study, koalas were housed singly and supplied with various Eucalyptus spp. foliage and water ad-libitum. […] No animals were sacrificed; the animals were returned to the colony immediately after firocoxib administration and blood sampling. In order to minimise stress, intravenous catheterisation for sequential blood sampling was performed under general anaesthesia.
The day prior to drug administration and blood collection, the koalas were anaesthetised with alfaxalone (Alfaxan, Jurox, Pty Ltd, Rutherford, NSW, Australia) at 3 mg/kg administered intramuscularly (i.m.) and maintained under anaesthesia on isoflurane in 100% oxygen via a face mask for placement of a 20 gauge, 1 ¼ inch intravenous catheter into the cephalic vein. A short T-connector extension set (Codan, Santa Ana, CA, USA) and cap was attached to the catheter and flushed with saline. The extension tube, cap and catheter were secured with tape and bandage, for serial blood collection. Blood (5 mL) was collected at the time of anaesthesia in a lithium heparin tube to establish a baseline (t = 0 h).
Firocoxib was administered as a single oral dose of 5 mg/kg as crushed tablets made into a paste with Vetafarm Koala Crittacare (Wagga Wagga, NSW) and water.
Samples were centrifuged at 1500 x g for 10 minutes, within 1 h of collection; the plasma was immediately stored at –80 °C and protected from light until drug quantification. […] Clinical observations for the presence of adverse effects in the animals treated included measurement of vital signs, appetite, body weight, faecal consistency and overall behaviour and mobility.
Quantification of firocoxib and visualisation of metabolites in plasma was achieved by HPLC with fluorescence detection modified from a published method [12]. The HPLC system consisted of a Shimadzu LC-20AT solvent delivery unit, DGU-20A degasser, a SIL-20A HT auto injector, an SPD-20A UV detector and RF-10A XL fluorescence detector (Shimadzu, Rydalmere, NSW, Australia) and column oven (CTO-20A). […] Chromatographic separation was performed with a Supelco, Discovery C18, (25 cm x 4.6 mm, 5 µm) column (Merck KGaA, Darmstadt, Germany) with a 1-mm Opti-guard C18 pre-column (Choice Analytical, Thornleigh, NSW, Australia) at ambient temperature. […] Fluorescence detection excitation and emission wavelengths were 280 nm and 375 nm, respectively.
For sample preparation 200 μL of each of the following: plasma samples collected from koalas administered firocoxib, standards prepared for the standard curves and the QC samples; were extracted twice by mixing with 800 μL of ethyl acetate. The extracted organic portion (1.6 mL) was dried under vacuum in a Speed Vac Concentrator (Thermo Scientific, MA, USA) at 35 °C for 1 h, reconstituted with 100 μL of acetonitrile, and finally 10 μL of the reconstituted sample was injected into the HPLC system.
The concentration of each QC sample was repeated three times with the accuracy and precision calculated on each of the triplicates. The mean accuracy ± standard deviation (SD) were calculated using the formula [13]:
Firocoxib plasma concentrations from the initial oral administration underwent non-compartmental analysis. The peak concentration (Cmax) and the time reached (Tmax) were obtained directly from the measured concentrations. The elimination half-life (t1/2) was determined by ln2/ke where ke is the elimination rate constant which is the inverse slope of the elimination or terminal part of the semi-log curve.

SMILES: CC1(C)OC(=O)C(OCC2CC2)=C1c1ccc(S(C)(=O)=O)cc1 [firocoxib]
- AUC 0-t/AUC0-inf (K1 male, single oral 5 mg/kg): 0.72
- AUMC 0-inf (K1 male, single oral 5 mg/kg): 56998 ng/mL*h^2
- Cl/F (K1 male, single oral 5 mg/kg): 19.0 L/h
- ka (absorption constant) (K1 male, single oral 5 mg/kg): 0.11 h⁻¹
- AUC 0-t/AUC0-inf (K2 male, single oral 5 mg/kg): 0.99
- AUMC 0-inf (K2 male, single oral 5 mg/kg): 11422 ng/mL*h^2
- Cl/F (K2 male, single oral 5 mg/kg): 30.5 L/h
- ka (absorption constant) (K2 male, single oral 5 mg/kg): 0.21 h⁻¹
- AUC 0-t/AUC0-inf (K3 male, single oral 5 mg/kg): 0.99
- AUMC 0-inf (K3 male, single oral 5 mg/kg): 13436.9 ng/mL*h^2
- Cl/F (K3 male, single oral 5 mg/kg): 24.6 L/h
- ka (absorption constant) (K3 male, single oral 5 mg/kg): 0.17 h⁻¹
- AUC 0-t/AUC0-inf (K4 female, single oral 5 mg/kg): 0.98
- AUMC 0-inf (K4 female, single oral 5 mg/kg): 8500.1 ng/mL*h^2
- Cl/F (K4 female, single oral 5 mg/kg): 38.5 L/h
- ka (absorption constant) (K4 female, single oral 5 mg/kg): 0.43 h⁻¹
- AUC 0-t/AUC0-inf (K5 female, single oral 5 mg/kg): 0.94
- AUMC 0-inf (K5 female, single oral 5 mg/kg): 11402.2 ng/mL*h^2
- Cl/F (K5 female, single oral 5 mg/kg): 49.2 L/h
- ka (absorption constant) (K5 female, single oral 5 mg/kg): 0.25 h⁻¹
- AUC 0-t/AUC0-inf (K6 female, single oral 5 mg/kg): 0.83
- AUMC 0-inf (K6 female, single oral 5 mg/kg): 14183.2 ng/mL*h^2
- Cl/F (K6 female, single oral 5 mg/kg): 87.5 L/h
- ka (absorption constant) (K6 female, single oral 5 mg/kg): 0.25 h⁻¹
- AUC 0-t/AUC0-inf [1]: 0.92
- AUMC 0-inf [1]: 11361.8 ng/mL*h^2
- Cl/F [1]: 58.4 L/h
- ka [1]: 0.28 h⁻¹
- AUC 0-t/AUC0-inf [2]: 0.90
- AUMC 0-inf [2]: 27285.7 ng/mL*h^2
- Cl/F [2]: 24.7 L/h
- ka [2]: 0.19 h⁻¹
- AUMC [3]: 19323.8 ng/mL*h ^ 2
- Cl/F [3]: 41.6 L/h
- ka [3]: 0.24 h⁻¹
- AUC(0-inf) (both, plasma, po, 5 mg/kg, AUC0-inf, arithmetic mean, n = 6 koalas, single oral 5 mg/kg): 1480 ng·h/mL
- AUC(0-inf) (both, plasma, po, 5 mg/kg, AUC0-inf, harmonic mean, n = 6 koalas, single oral 5 mg/kg): 1080 ng·h/mL
- AUC(0-inf) (both, plasma, po, 5 mg/kg, AUC0-inf, median (range), n = 6 koalas, single oral 5 mg/kg): 1260 ng·h/mL
- AUC(0-t) [4]: 1310 ng·h/mL
- AUC(0-t) [5]: 974 ng·h/mL
- AUC(0-t) [6]: 1240 ng·h/mL
- Cmax [4]: 141 ng/mL
- Cmax [5]: 79.2 ng/mL
- Cmax [6]: 140 ng/mL
- MRT inf [4]: 12 h
- MRT inf [5]: 10.7 h
- MRT inf [6]: 12.2 h
- Tmax [4]: 4.33 h
- Tmax [5]: 3.69 h
- Tmax [6]: 4 h
- Tmax (both, plasma, po, 5 mg/kg, median value, both sexes, koala (6), PO 5 mg/kg): 4 h
- Vd/F (both, plasma, po, 5 mg/kg, Vss/F, arithmetic mean, n = 6 koalas, single oral 5 mg/kg): 674 L
- Vd/F (both, plasma, po, 5 mg/kg, Vss/F, harmonic mean, n = 6 koalas, single oral 5 mg/kg): 332 L
- Vd/F (both, plasma, po, 5 mg/kg, Vss/F, median (range), n = 6 koalas, single oral 5 mg/kg): 811 L
- Vd/F (both, plasma, po, 5 mg/kg, Vz/F, arithmetic mean, n = 6 koalas, single oral 5 mg/kg): 582 L
- Vd/F (both, plasma, po, 5 mg/kg, Vz/F, harmonic mean, n = 6 koalas, single oral 5 mg/kg): 230 L
- Vd/F (both, plasma, po, 5 mg/kg, Vz/F, median (range), n = 6 koalas, single oral 5 mg/kg): 240 L
- k el [4]: 3.89e-05 s⁻¹
- k el [5]: 2.78e-05 s⁻¹
- k el [6]: 4.17e-05 s⁻¹
- half-life (both, plasma, po, 5 mg/kg, t1/2, arithmetic mean, n = 6 koalas, single oral 5 mg/kg): 7 h
- half-life (both, plasma, po, 5 mg/kg, t1/2, harmonic mean, n = 6 koalas, single oral 5 mg/kg): 5.01 h
- half-life (both, plasma, po, 5 mg/kg, t1/2, median (range), n = 6 koalas, single oral 5 mg/kg): 5.46 h
- MRT inf (female, in vivo, po, 5 mg/kg, K6 female, single oral 5 mg/kg): 26.4 h
- concentration at 1 h [7]: 8.27 ng/mL
- concentration at 2 h [7]: 24.3 ng/mL
- concentration at 4 h [7]: 89.3 ng/mL
- concentration at 8 h [7]: 74.7 ng/mL
- concentration at 1 h [8]: 28.6 ng/mL
- concentration at 2 h [8]: 61.9 ng/mL
- concentration at 4 h [8]: 51.8 ng/mL
- concentration at 8 h [8]: 45.8 ng/mL
- concentration at 1 h [9]: 7.89 ng/mL
- concentration at 2 h [9]: 12.3 ng/mL
- concentration at 4 h [9]: 28.9 ng/mL
- concentration at 8 h [9]: 17.5 ng/mL
- concentration at 0.25 h [10]: 0.78 ng/mL
- concentration at 0.5 h [10]: 1.23 ng/mL
- concentration at 12 h [10]: 40.2 ng/mL
- concentration at 24 h [10]: 3.7 ng/mL
- concentration at 0.25 h [11]: 3.74 ng/mL
- concentration at 0.5 h [11]: 5.88 ng/mL
- concentration at 12 h [11]: 23.3 ng/mL
- concentration at 24 h [11]: 12.8 ng/mL
- concentration at 36 h [11]: 3.83 ng/mL
- concentration at 0.25 h [12]: 3.58 ng/mL
- concentration at 0.5 h [12]: 10.6 ng/mL
- concentration at 12 h [12]: 13.2 ng/mL
- concentration at 24 h [12]: 3.78 ng/mL
- concentration at 36 h [12]: 7.02 ng/mL
- concentration at 48 h (female, koala, plasma, po, 5 mg/kg, Firocoxib plasma concentration, K6 female, 48 h, single oral 5 mg/kg): 3.83 ng/mL
- AUC(0-inf) (female, plasma, po, 5 mg/kg, AUC0-inf, K4 female, single oral 5 mg/kg): 973 ng·h/mL
- AUC(0-inf) (female, plasma, po, 5 mg/kg, AUC0-inf, K5 female, single oral 5 mg/kg): 868 ng·h/mL
- AUC(0-inf) (female, plasma, po, 5 mg/kg, AUC0-inf, K6 female, single oral 5 mg/kg): 537 ng·h/mL
- AUC(0-inf) (female, plasma, po, 5 mg/kg, AUC 0-inf, arithmetic mean, female koalas (n = 3), single oral 5 mg/kg): 793 ng·h/mL
- AUC(0-inf) (female, plasma, po, 5 mg/kg, AUC 0-inf, harmonic mean, female koalas (n = 3), single oral 5 mg/kg): 742 ng·h/mL
- AUC(0-t) [13]: 954 ng·h/mL
- AUC(0-t) [14]: 820 ng·h/mL
- AUC(0-t) [15]: 444 ng·h/mL
- AUC(0-t) [16]: 739 ng·h/mL
- AUC(0-t) [17]: 664 ng·h/mL
- Cmax [13]: 89.3 ng/mL
- Cmax [14]: 61.9 ng/mL
- Cmax [15]: 28.9 ng/mL
- Cmax [16]: 60.3 ng/mL
- Cmax [17]: 48.4 ng/mL
